# Test results reported in ChEMBL document CHEMBL2396605 (Bioorg Med Chem Lett, 2013).
# pIC50: −log10 of the molar value.
# Target: D-amino-acid oxidase (Sus scrofa, UniProt P00371)
# Assay: Inhibition of pig DAAO assessed as D-Serine conversion to H2O2 by spectrophotometric analysis
# D-amino-acid oxidase (Sus scrofa, UniProt P00371), sequence (P00371 whole entry): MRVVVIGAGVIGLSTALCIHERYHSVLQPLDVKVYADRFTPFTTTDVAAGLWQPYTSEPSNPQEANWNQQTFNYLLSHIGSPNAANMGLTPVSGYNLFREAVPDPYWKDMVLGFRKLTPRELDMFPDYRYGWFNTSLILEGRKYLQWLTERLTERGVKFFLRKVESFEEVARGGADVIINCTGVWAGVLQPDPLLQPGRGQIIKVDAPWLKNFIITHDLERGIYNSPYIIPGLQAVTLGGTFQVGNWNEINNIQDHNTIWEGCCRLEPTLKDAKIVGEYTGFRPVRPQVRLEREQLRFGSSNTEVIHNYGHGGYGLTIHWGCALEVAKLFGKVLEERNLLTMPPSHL
row,pIC50,SMILES
1,> 4.00,O=C(O)c1cc[nH]n1
2,> 6.00,O=C(O)c1cc(CCc2ccccc2)[nH]n1
3,> 6.00,O=C(O)c1cc(CCc2ccccc2)c[nH]1
4,> 5.00,O=C(O)c1ccc[nH]1

# Target: D-amino-acid oxidase (Homo sapiens, UniProt P14920)
# Assay: Inhibition of human recombinant DAAO expressed in HEK293 cell lysate assessed as D-Serine conversion to H2O2 after 20 mins by spectrophotometric analysis
# Assay type: cell-free
# D-amino-acid oxidase (Homo sapiens, UniProt P14920), sequence (P14920 whole entry): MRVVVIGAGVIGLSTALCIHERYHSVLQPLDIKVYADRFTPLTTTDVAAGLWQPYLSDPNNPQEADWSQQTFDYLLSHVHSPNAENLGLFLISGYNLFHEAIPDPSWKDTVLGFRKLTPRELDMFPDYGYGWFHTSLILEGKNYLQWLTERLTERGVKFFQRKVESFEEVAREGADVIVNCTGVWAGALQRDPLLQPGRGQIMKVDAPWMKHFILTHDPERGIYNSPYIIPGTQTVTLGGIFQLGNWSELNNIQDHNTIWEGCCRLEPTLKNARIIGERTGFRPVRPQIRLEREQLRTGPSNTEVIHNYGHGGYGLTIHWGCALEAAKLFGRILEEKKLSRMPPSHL
row,SMILES,pIC50
1,CCOCc1cc(=O)c(O)co1,< 4.00
2,O=c1cc(CSc2ccccc2)occ1O,6.70
3,O=c1cc(COc2ccccc2)occ1O,6.05
4,O=c1cc(COc2ccc(F)cc2)occ1O,6.10
5,O=c1cc(COc2ccc(Cl)c(Cl)c2)occ1O,6.30
6,O=c1cc(COc2cccnc2)occ1O,5.52
7,O=c1cc(COc2cccc3ccccc23)occ1O,6.05
8,O=c1cc(COC2CCCCO2)occ1O (stereo not drawn),< 4.00
9,O=c1cc(CSc2ccc(Cl)cc2)occ1O,6.70
10,O=c1cc(CSc2ccc(Cl)c(Cl)c2)occ1O,7.00
11,O=c1cc(CCc2ccccc2)occ1O,6.30
12,O=c1ccn(CCc2ccccc2)cc1O,< 4.00

# Other lines, results leading:
row,pIC50,SMILES
1,4.30,COCc1cc(=O)c(O)co1
2,6.52,O=c1cc(CSc2ccc(F)cc2)occ1O
3,5.40,O=c1cc(CSc2ncccn2)occ1O
4,6.15,O=c1cc(COc2ccc(Cl)cc2)occ1O
5,6.10,O=c1cc(COc2ccc3ccccc3c2)occ1O
6,4.70,O=c1cc(COCc2ccccc2)occ1O
7,< 4.00,COc1coc(CO)cc1=O
